According to patent publication US6410554B1, “Combination therapy for the treatment of benign prostatic hyperplasia” (Merck & Co., Inc., priority 1998, dated 2002):
Structures can show the parent of a compound that is named as a salt.

melting point: 80 to 83 °C
Compound: C[C@@H]1OC(=O)N(C(=O)NCCCN2CCC(c3ccc(F)cc3)CC2)[C@H]1c1ccc(F)c(F)c1 (as salt: hydrochloride)
